The record followed here is US8637498B2, “Oxopiperazine-azetidine amides and oxodiazepine-azetidine amides as monoacylglycerol lipase inhibitors” (Janssen Pharmaceutica, NV, priority 2010, dated 2014).

Test [1] deals with T1, mutant MGL (Homo sapiens, UniProt Q99685, L169S/L176S).
T1 construct: mut-MGLL 11-313 L179S L186S
T1 sequence (Q99685 1-303 L169S/L176S): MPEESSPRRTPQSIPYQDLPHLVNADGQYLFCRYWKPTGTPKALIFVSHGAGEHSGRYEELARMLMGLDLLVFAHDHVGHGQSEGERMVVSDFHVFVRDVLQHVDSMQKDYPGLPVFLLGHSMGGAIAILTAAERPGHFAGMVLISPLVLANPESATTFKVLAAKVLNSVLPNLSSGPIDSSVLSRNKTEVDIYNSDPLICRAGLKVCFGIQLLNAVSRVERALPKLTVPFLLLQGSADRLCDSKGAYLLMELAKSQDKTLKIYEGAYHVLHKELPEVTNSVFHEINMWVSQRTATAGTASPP
As to the kind of experiment: MGL ThermoFluor Assay - Mutant. Format: binding. On the procedure:
The ThermoFluor (TF) assay is a 384-well plate-based binding assay that measures thermal stability of proteins^1,2. The experiments were carried out using instruments available from Johnson & Johnson Pharmaceutical Research & Development, LLC. TF dye used in all experiments was 1,8-ANS (Invitrogen: A-47). Final TF assay conditions used for MGL studies were 0.07 mg/ml of mutant MGL, 100 μM ANS, 200 mM NaCl, 0.001% Tween-20 in 50 mM PIPES (pH=7.0).
Screening compound plates contained 100% DMSO compound solutions at a single concentration. For follow-up concentration-response studies, compounds were arranged in a pre-dispensed plate (Greiner Bio-one: 781280), wherein compounds were serially diluted in 100% DMSO across 11 columns within a series. Columns 12 and 24 were used as DMSO reference and contained no compound. For both single and multiple compound concentration-repsonse experiments, the compound aliquots (46 nL) were robotically predispensed directly into 384-well black assay plates (Abgene: TF-0384/k) using the Hummingbird liquid handler. Following compound dispension, protein and dye solutions were added to achieve the final assay volume of 3 μL. The assay solutions were overlayed with 1 μL of silicone oil (Fluka, type DC 200: 85411) to prevent evaporation.
Bar-coded assay plates were robotically loaded onto a thermostatically controlled PCR-type thermal block and then heated from 40 to 90° C. degrees at a ramp-rate of 1° C./min for all experiments. Fluorescence was measured by continuous illumination with UV light (Hamamatsu LC6), supplied via fiber optics and filtered through a band-pass filter (380-400 nm; >6 OD cutoff). Fluorescence emission of the entire 384-well plate was detected by measuring light intensity using a CCD camera (Sensys, Roper Scientific) filtered to detect 500±25 nm, resulting in simultaneous and independent readings of all 384 wells. A single image with 20-sec exposure time was collected at each temperature, and the sum of the pixel intensity in a given area of the assay plate was recorded vs temperature and fit to standard equations to yield the Tm^1. • 1. Pantoliano, M. W., Petrella, E. C., Kwasnoski, J. D., Lobanov, V. S., Myslik, J., Graf, E., Carver, T., Asel, E., Springer, B. A., Lane, P., and Salemme, F. R. (2001) J Biomol Screen 6, 429-40. • 2. Matulis, D., Kranz, J. K., Salemme, F. R., and Todd, M. J. (2005) Biochemistry 44, 5258-66.
The Kd values for compounds of Formula (Ia) and (Ib) were determined from a fit of the equation to the concentration-response plot of the fractional activity as a function of Tm. For some experiments, quantitative NMR spectroscopy (qNMR) was used to measure concentration of the initial 100% DMSO compound solutions and, using the same fitting method, qKd values were determined.
(In general: DSF heats the sample and reads unfolding from a dye or from intrinsic fluorescence.)

Test [2] has as its target T2, purified mutant MGL (mut-MGLL 11-313 L179S L186S) (Homo sapiens, UniProt Q99685, L169S/L176S).
T2 construct: mut-MGLL 11-313 L179S L186S
T2 sequence (Q99685 1-303 L169S/L176S): T1 sequence (Q99685 1-303 L169S/L176S)
As to the kind of experiment: MGL Enzyme Activity Assay (mutant MGL, 4MU-B substrate). Format: biochemical. Conditions: mutant MGL 5 nM, 4MU-B 10 μM, 37° C.; read-out: MGL mutant inh IC50. On the procedure:
(§1) All rate-based assays were performed in black 384-well polypropylene PCR microplates (Abgene) in a total volume of 30 μL. Substrate 4-methylumbelliferyl butyrate (4MU-B; Sigma) and either purified mutant MGL (mut-MGLL 11-313 L179S L186S) or purified wild type MGL (wt-MGLL 6H-11-313) were diluted separately into 20 mM PIPES buffer (pH=7.0), containing 150 mM NaCl and 0.001% Tween 20. Compounds of Formula (Ia) and (Ib) were pre-dispensed (50 nL) into the assay plate using a Cartesian Hummingbird prior to adding 4MU-B (25 μL of 1.2× solution to a final concentration of 10 μM) followed by enzyme (5 μL of a 6× solution to a final concentration of 5 nM) to initiate the reaction. Final compound concentrations ranged from 17 to 0.0003 μM. The fluorescence change due to 4MU-B cleavage was monitored with excitation and emission wavelengths of 335 and 440 nm, respectively, and a bandwidth of 10 nm (Safire^2, Tecan) at 37° C. for 5 min.
(§2) The IC50 values for compounds of Formula (Ia) or (Ib) were determined using Excel from a fit of the equation to the concentration-response plot of the fractional activity as a function of inhibitor concentration.

Test [3] has as its target T3, MGL (Rattus norvegicus, UniProt Q8R431).
T3 construct: one g rat brain was homogenized; from tissue; host or cells: rat brain homogenate
T3 sequence (Q8R431 1-303): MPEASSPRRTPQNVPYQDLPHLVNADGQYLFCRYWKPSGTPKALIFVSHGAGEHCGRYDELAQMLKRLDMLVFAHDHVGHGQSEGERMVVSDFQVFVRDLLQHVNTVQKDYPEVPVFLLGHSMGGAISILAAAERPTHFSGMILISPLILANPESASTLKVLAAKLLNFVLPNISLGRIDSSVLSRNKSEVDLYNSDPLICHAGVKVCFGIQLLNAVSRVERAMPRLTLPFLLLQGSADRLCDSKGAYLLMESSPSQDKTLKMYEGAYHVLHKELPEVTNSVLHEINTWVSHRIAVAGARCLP
As to the kind of experiment: 2-AG Accumulation Assay in rat brain homogenate. Format: biochemical. As to conditions: compound @1 μM, 2-AG accumulation as percent of vehicle. On the procedure: After a 15-min incubation time at 37° C., CaCl2 (final concentration=10 mM) was added and then incubated for 15 min at 37° C. in a total volume of 5 mL. The reactions were stopped with 6 mL organic solvent extraction solution of 2:1 chloroform/methanol. Accumulated 2-AG in the organic phase was measured by a HPLC/MS method, according to the following equation: percent vehicle=(2-AG accumulation in the presence of compound/2-AG accumulation in vehicle)×100.

Test [4] deals with T4, purified wild type MGL (wt-MGLL 6H-11-313) (Homo sapiens, UniProt Q99685).
T4 construct: wt-MGLL 6H-11-313; 6H (hexahistidine) (N)
T4 sequence (Q99685 1-303): T1 sequence (Q99685 1-303 L169S/L176S) with S169L, S176L
As to the kind of experiment: MGL Enzyme Activity Assay (wild type MGL, 4MU-B substrate). The format is biochemical. Conditions: wild type MGL 5 nM, 4MU-B 10 μM, 37° C.; read-out: MGL wild type inh IC50. On the procedure: as §1, §2

The mark [5] stands for this setting: mutant MGL 0.07 mg/ml, 1,8-ANS dye, read-out: MGL mutant ThermoFluor Kd.
Where [6] appears, read: mutant MGL, compound concentration measured by qNMR, read-out: MGL mutant ThermoFluor qKd (using qNMR conc.).

Changes are numbered by the printed parent chain. Read-outs that look alike come from different tables or passages of the source. Where only a bound is given, the exact number is not on record here.

With `O=C(c1ccc(Cc2ccccc2)cc1)N1CC(N2CCN(c3ccccc3)C(=O)C2)C1` [Cpd 1, 4-(1-(4-benzylbenzoyl)azetidin-3-yl)-1-phenylpiperazin-2-one], in test [1] (setting [5]), the Kd worked out at 3330 nM. Also, the IC50 (usually the concentration that gives 50% inhibition) in test [2] worked out at 5280 nM.
For `O=C(c1ccc(-c2ccccc2)cc1)N1CC(N2CCN(c3ccccc3)C(=O)C2)C1` [Cpd 2, 4-(1-([1,1′-biphenyl]-4-carbonyl)azetidin-3-yl)-1-phenylpiperazin-2-one], the Kd in test [1] (setting [5]) stood at 19700 nM. In addition, in test [2], the IC50 stood at 4240 nM.
Take `O=C(c1ccc2c(ccn2-c2ccc(C(F)(F)F)cc2)c1)N1CC(N2CCN(c3ncccn3)C(=O)C2)C1` [Cpd 3, 1-Pyrimidin-2-yl-4-[1-({1-[4-(trifluoromethyl)phenyl]-1H-indol-5-yl}carbonyl)azetidin-3-yl]piperazin-2-one]: the “Rat Brain 2AG % VehCntrl (%) @1 μM” value in test [3] is 418%. The Kd in test [1] (setting [5]) was found to be 39.8 nM. The 50% inhibitory concentration (IC50) in test [4] came out at 6 nM.
For the compound `O=C(c1ccc2c(ccn2-c2ccc(F)cc2)c1)N1CC(N2CCN(c3nccs3)C(=O)C2)C1` [Cpd 5, 4-(1-{[1-(4-Fluorophenyl)-1H-indol-5-yl]carbonyl}azetidin-3-yl)-1-(1,3-thiazol-2-yl)piperazin-2-one], the “Rat Brain 2AG % VehCntrl (%) @1 μM” value in test [3] was 316%. Moreover, the Kd in test [1] (setting [6]) was 171 nM. Also, the IC50 in test [4] worked out at 10 nM.
In the case of `O=C(c1ccc2c(ccn2-c2ccc(F)cc2)c1)N1CC(N2CCN(c3cscn3)C(=O)C2)C1` [Cpd 6, 4-(1-{[1-(4-Fluorophenyl)-1H-indol-5-yl]carbonyl}azetidin-3-yl)-1-(1,3-thiazol-4-yl)piperazin-2-one], the “Rat Brain 2AG % VehCntrl (%) @1 μM” value in test [3] is 302%. For the same compound, the Kd in test [1] (setting [6]) turned out to be 621 nM. Further, the IC50 in test [4] is 29 nM.
`O=C(c1sc2cc(C(F)(F)F)ccc2c1Cl)N1CC(N2CCN(c3cscn3)C(=O)C2)C1` [Cpd 7, 4-(1-{[3-Chloro-6-(trifluoromethyl)-1-benzothiophen-2-yl]carbonyl}azetidin-3-yl)-1-(1,3-thiazol-4-yl)piperazin-2-one]: the “Rat Brain 2AG % VehCntrl (%) @1 μM” value in test [3] worked out at 155%. In test [1] (setting [6]), the Kd was 186 nM. In addition, the half-maximal inhibitory concentration (IC50) in test [4] amounted to 67.2 nM.
On to `O=C(c1sc2cc(C(F)(F)F)ccc2c1Cl)N1CC(N2CCC(=O)N(c3nccs3)CC2)C1` [Cpd 19, 1-(1-{[3-Chloro-6-(trifluoromethyl)-1-benzothiophen-2-yl]carbonyl}azetidin-3-yl)-4-(1,3-thiazol-2-yl)-1,4-diazepan-5-one], for which, in test [1] (setting [6]), the Kd was 0.8 nM. Besides, in test [4], the IC50 is less than 5 nM.
As to `O=C(c1ccc2c(ccn2-c2ccc(F)cc2)c1)N1CC(N2CCC(=O)N(c3ncccn3)CC2)C1` [Cpd 20, 1-(1-{[1-(4-Fluorophenyl)-1H-indol-5-yl]carbonyl}azetidin-3-yl)-4-pyrimidin-2-yl-1,4-diazepan-5-one], in test [1] (setting [6]), the Kd is 282 nM. Besides, the IC50 in test [4] was 248 nM.
For the compound `O=C(c1ccc2c(ccn2-c2ccc(F)cc2)c1)N1CC(N2CCC(=O)N(c3nccs3)CC2)C1` [Cpd 21, 1-(1-{[1-(4-Fluorophenyl)-1H-indol-5-yl]carbonyl}azetidin-3-yl)-4-(1,3-thiazol-2-yl)-1,4-diazepan-5-one], in test [1] (setting [6]), the Kd is 1 nM. Moreover, in test [4], the IC50 was less than 5 nM.
For `O=C(c1ccc2nc(-c3ccccc3)oc2c1)N1CC(N2CCC(=O)N(c3nccs3)CC2)C1` [Cpd 22, 1-{1-[(2-Phenyl-1,3-benzoxazol-6-yl)carbonyl]azetidin-3-yl}-4-(1,3-thiazol-2-yl)-1,4-diazepan-5-one] the same measures were 2.5 nM and less than 5 nM.
For the compound `O=C(c1cc2ccc(C(F)(F)F)cc2s1)N1CC(N2CCN(c3ncccn3)CC2=O)C1` [Cpd 23, 4-Pyrimidin-2-yl-1-(1-{[6-(trifluoromethyl)-1-benzothiophen-2-yl]carbonyl}azetidin-3-yl)piperazin-2-one], in test [1] (setting [5]), the Kd was determined as 714 nM. In test [4], the IC50 was determined as 568 nM.
As to `O=C(c1ccc2c(ccn2-c2ccc(C(F)(F)F)cc2)c1)N1CC(N2CCN(c3ncccn3)CC2=O)C1` [Cpd 24, 4-Pyrimidin-2-yl-1-[1-({1-[4-(trifluoromethyl)phenyl]-1H-indol-5-yl}carbonyl)azetidin-3-yl]piperazin-2-one], in test [3], the “Rat Brain 2AG % VehCntrl (%) @1 μM” value is 155%. Further, the Kd in test [1] (setting [5]) amounted to 433 nM. Moreover, the IC50 in test [4] is 37.9 nM.
